Results published in US20230382916A1, “HETEROARYL HETEROCYCLIC COMPOUNDS AND USES THEREOF” (HUTCHISON MEDIPHARMA LIMITED, priority 2020, published 2023).
pIC50: −log10 of the molar value.

Experiments:
[1] = target: BTK recombinant protein (Homo sapiens (Human), UniProt Q06187); assay: Determination of biochemical BTK (Z'-LYTE kinase assay); conditions: 32 μM ATP
[2] = tested on: rat arthritis model induced by type II collagen; assay: Rat arthritis model induced by type II collagen (CIA), paw volume; format: in vivo; conditions: for inhibition ratio of area under the curve (IRAUC) of paw swelling: Day 13 to Day 19
Procedure: An appropriate amount of bovine type II collagen (CII, Chondrex (Redmond, WA, USA), Cat #20021) was weighed and dissolved in 0.1 mole of acetic acid (SPGC Sinopharm Chemical Reagent Co., Ltd (Shanghai, P.R. China), Cat #: 10000218.), which was formulated into a solution with a concentration of 6 mg/mL, stirred at 4° C. overnight, and added with an equal volume of Freund's incomplete adjuvant (Sigma-Aldrich. (St. Louis, MO, USA), Cat #: SLBW0366.), fully emulsified to prepare an emulsion with a CII concentration of 3 mg/mL.
Female Lewis rats were purchased from Beijing Vital River Laboratory Animal Technology Co., Ltd. (certificate number 20200928Aazz0619000579, initial body weight of 110-130 grams), and 6 rats were randomly selected as a normal group; and all of the remaining rats were immunized. In the first immunization on day 0, the rats except those in the normal group were anesthetized with isoflurane (Hebei Yipin Pharmaceutical Co., Ltd., Lot: C002170601.), and then disinfected with 75% alcohol, and 0.2 mL of emulsion was injected intradermally at the base of the tail thereof. A second challenge was carried out on day 7, and 0.2 mL of emulsion was intradermally injected using the same method. Once the animals developed symptoms on day 10, the incidence conditions thereof were closely monitored.
After grouping, the normal group was not administered, and the rats in the other groups were administered with the control vehicle, 0.25 mg/kg and 4 mg/kg of the reference GDC-0853, and each dose of compound 1 orally once a day until the end of the experiment.
The paw volume was measured on day 10 after immunization, and the left and right hind paw volumes (V) were measured every day after the paw volume increase was detected.
The arthrosis paw volumes of the left and right hind limbs of each animal were measured, and the average paw volume (APV) was calculated according to the following formula:
Average paw volume APV=(Vleft+Vright)/2
The average arthrosis paw volume of each animal before administration was used as the baseline (or considered […] of inflammation). The averaged paw swelling (APS) of each animal is calculated according to the following formula, wherein, APVd1 is the average paw volume of the animal administered on day 1, and APVdt is the average paw volume of the animal administered on day t:
The averaged paw swelling APSdt=(APVdt−APVd1)
The area under the curve (AUC) of the average paw volume swelling is the area under the curve of the arthrosis score swelling calculated by the trapezoid method, and the calculation formula is:
AUCAPS=½×(APSd1+APSd2)×(d2−d1)+½×(APSd2+APSd3)×(d3−d2)+ . . . +½×(APSdn+APSd(n-1))×(dn−dn-1).
Inhibition ratio IRAUC%=(Mean AUCAPS in the model group−AUCAPS in the drug-treated group)/(Mean AUCAPS in the model group−Mean AUCAPS in the normal group)×100%.

BTK recombinant protein, sequence (Q06187 whole entry): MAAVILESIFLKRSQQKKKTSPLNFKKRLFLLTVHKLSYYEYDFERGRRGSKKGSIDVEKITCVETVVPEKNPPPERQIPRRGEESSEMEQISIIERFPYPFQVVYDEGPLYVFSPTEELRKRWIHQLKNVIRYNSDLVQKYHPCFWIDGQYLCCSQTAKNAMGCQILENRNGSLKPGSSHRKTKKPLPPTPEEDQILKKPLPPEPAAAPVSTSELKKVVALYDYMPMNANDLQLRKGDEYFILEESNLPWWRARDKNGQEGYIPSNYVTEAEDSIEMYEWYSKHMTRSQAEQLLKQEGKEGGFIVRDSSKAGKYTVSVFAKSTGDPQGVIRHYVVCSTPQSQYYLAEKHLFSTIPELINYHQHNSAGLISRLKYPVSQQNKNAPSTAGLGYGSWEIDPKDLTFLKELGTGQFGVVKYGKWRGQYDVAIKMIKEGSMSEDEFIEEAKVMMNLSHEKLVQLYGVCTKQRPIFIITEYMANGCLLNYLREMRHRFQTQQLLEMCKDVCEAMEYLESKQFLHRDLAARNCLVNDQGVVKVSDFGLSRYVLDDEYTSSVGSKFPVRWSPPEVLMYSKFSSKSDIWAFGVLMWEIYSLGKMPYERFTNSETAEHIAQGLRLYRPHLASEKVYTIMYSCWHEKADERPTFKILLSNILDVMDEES

C[C@H]1CN(C2COC2)C[C@H](C)N1c1ccc(Nc2cc(-c3ccnc(-n4ccn5c6c(cc5c4=O)CC(C)(C)C6)c3CO)cn(C)c2=O)nc1 [Compound 1, 2-(5-((5-((2S,6S)-2,6-dimethyl-4-(oxetan-3-yl)piperazin-1-yl)pyridin-2-yl)amino)-3′-(hydroxymethyl)-1-methyl-6-oxo-1,6-dihydro-[3,4′-bipyridin]-2′-yl)-7,7-dimethyl-7,8-dihydro-2H-cyclopenta[4,5]pyrrolo[1,2-a]pyrazin-1(6H)-one]
pIC50 [1]: 8.00 | inhibition ratio of area under the curve (IRAUC) of paw swelling ([2]; 0.06 mg/kg oral QD): 76.2% | effect on paw volume compared with vehicle control group ([2]; 0.25 mg/kg oral QD): significantly increase the continuous improvement of paw volume swelling | inhibition ratio of area under the curve (IRAUC) of paw swelling ([2]; 0.25 mg/kg oral QD): 83.1% | effect on paw volume compared with vehicle control group ([2]; 4 mg/kg oral QD): significantly increase the continuous improvement of paw volume swelling | inhibition ratio of area under the curve (IRAUC) of paw swelling ([2]; 4 mg/kg oral QD): 200.2% | minimum effective dose ([2]; oral QD, paw swelling): 0.06 mg/kg/day
